The record followed here is US5624928A, “Method of synthesizing an endonuclease inhibitor and analogs thereof” (priority 1994, dated 1997).

SMILES strings stand for the structures.

The assay deals with transcription apparatus of the influenza virus (Influenza A virus, UniProt P03433). The assay is described as follows: in vitro influenza transcription assay. Type of assay: biochemical.
In the case of `CC(C)CC1=N/C(=C\c2cccc(F)c2)C(=O)N(O)C1=O` [Example 11, 1-(N-hydroxy)-3-(2-methyl-propyl)-5-(Z-m-fluorobenz-1-enyl)-2,6-diketopiperazine-3,4-ene], the midpoint of inhibition, the IC50, lay at 1.5 µM.

As to `CC(C)/C=C1\N=C(CC(C)C)C(=O)N(O)C1=O` [Compound I, 1-(N-hydroxy)-3-(2-methyl-propyl)-5-(2-methyl-Z-prop-1-enyl)-2,6-diketopiperazine-3,4-ene], the IC50 was 5 µM and the “IC50 in flu transcription assay (compared with the natural product)” value was “same IC50”.

For `CC(C)CC1=N/C(=C\c2ccccc2F)C(=O)N(O)C1=O` [Example 10, 1-(N-hydroxy)-3-(2-methyl-propyl)-5-(Z-o-fluorobenz-1-enyl)-2,6-diketopiperazine-3,4-ene], the IC50 came out at 7.3 µM.

As to `O=C1C(Cc2ccc(F)cc2)=N/C(=C\c2ccccc2)C(=O)N1O` [Example 15B], the IC50 worked out at 6.5 µM.

In turn, `CC(C)CC1NC(Cc2ccc(F)cc2)C(=O)N(O)C1=O` (centres unmarked) [Example 16] had a half-maximal inhibitory concentration (IC50) of 85 µM.

On to `CC(C)CC1=N/C(=C\c2ccccc2)C(=O)N(O)C1=O` [Example 8, 1-(N-hydroxy)-3-(2-methyl-propyl)-5-(Z-benz-1-enyl)-2.6-diketopiperazine-3,4-ene], for which inhibition was half-maximal at 4.8 µM (IC50).

`O=C1C(Cc2ccccc2)=N/C(=C\c2ccc(F)cc2)C(=O)N1O` [Example 15A, 1-(N-hydroxy)-3-(benzyl)-5-(Z-p-fluoro-benz-1-enyl)-2,6-diketopiperazine-3,4-ene] returned a half-inhibitory concentration (IC50) of 3.5 µM.

Compound `CC(C)CC1=N/C(=C\c2ccc(F)cc2)C(=O)N(O)C1=O` [Example 9, 1-(N-hydroxy)-3-(2-methyl-propyl)-5-(Z-p-fluorobenz-1-enyl)-2.6-diketopiperazine-3.4-ene] yielded a half-maximal inhibitory concentration (IC50) of 0.9 µM.

In turn, `COc1ccc(/C=C2\N=C(Cc3ccccc3)C(=O)N(O)C2=O)cc1` [Example 14, 1-(N-hydroxy)-3-(benzyl)-5-(Z-p-methoxybenz-1-enyl)-2,6-diketopiperazine-3,4-ene] displayed a 50% inhibitory concentration (IC50) of 2.8 µM.

Regarding `COc1ccc(/C=C2\N=C(CC(C)C)C(=O)N(O)C2=O)cc1` [Example 12, 1-(N-hydroxy)-3-(2-methyl-propyl)-5-(Z-p-methoxybenz-1-enyl)-2,6-diketopiperazine-3,4-ene], it took 0.8 µM to reach half-maximal inhibition (IC50).
